These results are taken from US10022374B2, “Certain protein kinase inhibitors” (Shanghai Fochon Pharmaceutical Co., Ltd., priority 2013, dated 2018).

One test relates to HT-29 cells. Briefly: Inhibition of cell proliferation (MTS), HT-29 cells. Type of test: cell-based. The note with it: Homo sapiens, HT-29, 72 h, HT-29 cells, 5000 cells/well, 72 h, MTS, absorbance 490 nm; read-out: HT29 IC50. The protocol:
(§1) MTS testing kit was purchased from Promega. The DMEM, RPMI-1640 and Fetal bovine serum were purchased from Gibco. Dimethyl sulfoxide (DMSO) was purchased from Sigma.
(§2) To investigate whether a compound is able to inhibit the activity of MEK in cells, a mechanism-based assay using A-375 and HT-29 cell was developed. In this assay, inhibition of MEK was detected by the inhibition of A-375 and HT-29 cells proliferation. A-375 and HT-29 cells were cultured in culture flasks to 40-80% confluence respectively in DMEM and RPMI-1640 plus 10% fetal bovine serum. Cells were collected and plated onto 96-well plates at desired cell density (A-375: 3000 cells/well; HT-29: 5000 cells/well). Plates were incubated overnight at 37° C., with 5% CO2 to adhere. Compounds were added to the plates. The final compound concentrations were […], 12.35, 4.12, 1.37, 0.46 and 0.15 nM, respectively. Place plates at 37° C., with 5% CO2 for 72 h. 10 μl MTS were added to each well and incubate the plates for exactly 2 hours. Absorbance was measured at 490 nm. […] was calculated using GraphPad Prism 5.0.

The subject of the next test is A-375 cells. The test is described as follows: Inhibition of cell proliferation (MTS), A-375 cells. The note with it: Homo sapiens, A-375, 72 h, A-375 cells, 3000 cells/well, 72 h, MTS, absorbance 490 nm; read-out: A375 IC50. Type of test: cell-based. As to the method:
as §1, §2

SMILES strings stand for the structures.

As a reminder, the IC50 is the concentration needed to halve the response being measured. Consider `CC(C)n1nc(-c2cccc(NS(=O)(=O)C3CC3)c2)c2c(c(Nc3ccc(I)cc3F)c(F)c(=O)n2C)c1=O` [Example 16, N-(3-(3-fluoro-4-(2-fluoro-4-iodophenylamino)-6-isopropyl-1-methyl-2,5-dioxo-1,2,5,6-tetrahydropyrido[2,3-d]pyridazin-8-yl)phenyl)cyclopropanesulfonamide], for which the half-inhibitory concentration (IC50) in the test on HT-29 cells was found to be 31.5 nM; in the test on A-375 cells, 19.4 nM.

Regarding `CCCn1nc(-c2cccc(NS(=O)(=O)C3CC3)c2)c2c(c(Nc3ccc(I)cc3F)c(F)c(=O)n2C)c1=O` [Example 17, N-(3-(3-fluoro-4-(2-fluoro-4-iodophenylamino)-1-methyl-2,5-dioxo-6-propyl-1,2,5,6-tetrahydropyrido[2,3-d]pyridazin-8-yl)phenyl)cyclopropanesulfonamide], the IC50 in the test with HT-29 cells came out at 21.6 nM; in the test with A-375 cells it was 12.8 nM.

`COCCn1nc(-c2cccc(NS(=O)(=O)C3CC3)c2)c2c(c(Nc3ccc(I)cc3F)c(F)c(=O)n2C)c1=O` [Example 18, N-(3-(3-fluoro-4-(2-fluoro-4-iodophenylamino)-6-(2-methoxyethyl)-1-methyl-2,5-dioxo-1,2,5,6-tetrahydropyrido[2,3-d]pyridazin-8-yl)phenyl)cyclopropanesulfonamide]: the IC50 with HT-29 cells was 23.6 nM; with A-375 cells it was 30.2 nM.

With `Cn1c(=O)c(F)c(Nc2ccc(I)cc2F)c2c(=O)n(CCF)nc(-c3cccc(NS(=O)(=O)C4CC4)c3)c21` [Example 19, N-(3-(3-fluoro-4-(2-fluoro-4-iodophenylamino)-6-(2-fluoroethyl)-1-methyl-2,5-dioxo-1,2,5,6-tetrahydropyrido[2,3-d]pyridazin-8-yl)phenyl)cyclopropanesulfonamide], the values for the half-inhibitory concentration (IC50) in the test with HT-29 cells and in the test with A-375 cells were 4.2 nM and 2.4 nM, respectively.

As for `Cn1c(=O)c(F)c(Nc2ccc(I)cc2F)c2c(=O)n(CC(F)F)nc(-c3cccc(NS(=O)(=O)C4CC4)c3)c21` [Example 20, N-(3-(6-(2,2-difluoroethyl)-3-fluoro-4-(2-fluoro-4-iodophenylamino)-1-methyl-2,5-dioxo-1,2,5,6-tetrahydropyrido[2,3-d]pyridazin-8-yl)phenyl)cyclopropanesulfonamide], the results for the IC50 with HT-29 cells and with A-375 cells were 7.7 nM and 6.4 nM, respectively.

With `CC(=O)Nc1cccc(-c2nn(C)c(=O)c3c(Nc4ccc(I)cc4F)c(F)c(=O)n(C)c23)c1` [Example 21, N-(3-(3-fluoro-4-(2-fluoro-4-iodophenylamino)-1,6-dimethyl-2,5-dioxo-1,2,5,6-tetrahydropyrido[2,3-d]pyridazin-8-yl)phenyl)acetamide], the values for the IC50 with HT-29 cells and in the test on A-375 cells were under 1 nM and 3.9 nM, respectively.

Regarding `Cn1nc(-c2cccc(NS(C)(=O)=O)c2)c2c(c(Nc3ccc(I)cc3F)c(F)c(=O)n2C)c1=O` [Example 22, N-(3-(3-fluoro-4-(2-fluoro-4-iodophenylamino)-1,6-dimethyl-2,5-dioxo-1,2,5,6-tetrahydropyrido[2,3-d]pyridazin-8-yl)phenyl)methanesulfonamide], the IC50 in the test on HT-29 cells and in the test on A-375 cells was under 1 nM throughout.

As to `Cn1nc(-c2cccc(NS(=O)(=O)C3CC3)c2)c2c(c(Nc3ccc(I)cc3F)c(F)c(=O)n2C)c1=O` [Example 23, N-(3-(3-fluoro-4-(2-fluoro-4-iodophenylamino)-1,6-dimethyl-2,5-dioxo-1,2,5,6-tetrahydropyrido[2,3-d]pyridazin-8-yl)phenyl)cyclopropanesulfonamide], the IC50 with HT-29 cells and in the test with A-375 cells was under 1 nM in each case.

As for `CCn1nc(-c2cccc(NC(C)=O)c2)c2c(c(Nc3ccc(I)cc3F)c(F)c(=O)n2C)c1=O` [Example 24, N-(3-(6-ethyl-3-fluoro-4-(2-fluoro-4-iodophenylamino)-1-methyl-2,5-dioxo-1,2,5,6-tetrahydropyrido[2,3-d]pyridazin-8-yl)phenyl)acetamide], the IC50 in the test with HT-29 cells was determined as 6.1 nM; with A-375 cells, 13.7 nM.

With `CCn1nc(-c2cccc(NS(C)(=O)=O)c2)c2c(c(Nc3ccc(I)cc3F)c(F)c(=O)n2C)c1=O` [Example 25, N-(3-(6-ethyl-3-fluoro-4-(2-fluoro-4-iodophenylamino)-1-methyl-2,5-dioxo-1,2,5,6-tetrahydropyrido[2,3-d]pyridazin-8-yl)phenyl)methanesulfonamide], the IC50 in the test on HT-29 cells and in the test with A-375 cells was under 1 nM in each case.

`CCn1nc(-c2cccc(NS(=O)(=O)C(C)C)c2)c2c(c(Nc3ccc(I)cc3F)c(F)c(=O)n2C)c1=O` [Example 26, N-(3-(6-ethyl-3-fluoro-4-(2-fluoro-4-iodophenylamino)-1-methyl-2,5-dioxo-1,2,5,6-tetrahydropyrido[2,3-d]pyridazin-8-yl)phenyl)propane-2-sulfonamide]: the IC50 with HT-29 cells was under 1 nM; in the test on A-375 cells it was 11.9 nM.

On to `CCn1nc(-c2cccc(NS(=O)(=O)C3CC3)c2)c2c(c(Nc3ccc(I)cc3F)c(F)c(=O)n2C)c1=O` [Example 27, N-(3-(6-ethyl-3-fluoro-4-(2-fluoro-4-iodophenylamino)-1-methyl-2,5-dioxo-1,2,5,6-tetrahydropyrido[2,3-d]pyridazin-8-yl)phenyl)cyclopropanesulfonamide], for which the IC50 in the test on HT-29 cells and in the test on A-375 cells was under 1 nM in each case.

Consider `C=CCn1nc(-c2cccc(NC(C)=O)c2)c2c(c(Nc3ccc(I)cc3F)c(F)c(=O)n2C)c1=O` [Example 28, N-(3-(6-allyl-3-fluoro-4-(2-fluoro-4-iodophenylamino)-1-methyl-2,5-dioxo-1,2,5,6-tetrahydropyrido[2,3-d]pyridazin-8-yl)phenyl)acetamide], for which the 50% inhibitory concentration (IC50) in the test on HT-29 cells came to 6.4 nM; in the test with A-375 cells it was 1.6 nM.

Take `C=CCn1nc(-c2cccc(NC(=O)CC)c2)c2c(c(Nc3ccc(I)cc3F)c(F)c(=O)n2C)c1=O` [Example 29, N-(3-(6-allyl-3-fluoro-4-(2-fluoro-4-iodophenylamino)-1-methyl-2,5-dioxo-1,2,5,6-tetrahydropyrido[2,3-d]pyridazin-8-yl)phenyl)propionamide]: the IC50 in the test with HT-29 cells worked out at 106 nM; with A-375 cells, 51.2 nM.

`C=CCn1nc(-c2cccc(NC(=O)C3CC3)c2)c2c(c(Nc3ccc(I)cc3F)c(F)c(=O)n2C)c1=O` [Example 30, N-(3-(6-allyl-3-fluoro-4-(2-fluoro-4-iodophenylamino)-1-methyl-2,5-dioxo-1,2,5,6-tetrahydropyrido[2,3-d]pyridazin-8-yl)phenyl)cyclopropanecarboxamide]: the values for the IC50 in the test on HT-29 cells and in the test with A-375 cells were 76.7 nM and 80.7 nM, respectively.

For `C=CCn1nc(-c2cccc(NS(C)(=O)=O)c2)c2c(c(Nc3ccc(I)cc3F)c(F)c(=O)n2C)c1=O` [Example 31, N-(3-(6-allyl-3-fluoro-4-(2-fluoro-4-iodophenylamino)-1-methyl-2,5-dioxo-1,2,5,6-tetrahydropyrido[2,3-d]pyridazin-8-yl)phenyl)methanesulfonamide], the IC50 in the test with HT-29 cells was determined as 7.4 nM; in the test on A-375 cells, 1.1 nM.

`C=CCn1nc(-c2cccc(NS(=O)(=O)CC)c2)c2c(c(Nc3ccc(I)cc3F)c(F)c(=O)n2C)c1=O` [Example 32, N-(3-(6-allyl-3-fluoro-4-(2-fluoro-4-iodophenylamino)-1-methyl-2,5-dioxo-1,2,5,6-tetrahydropyrido[2,3-d]pyridazin-8-yl)phenyl)ethanesulfonamide]: the concentration for half-maximal inhibition (IC50) with HT-29 cells turned out to be 12.7 nM; in the test with A-375 cells it was 36.2 nM.
